# Laboratory results: US11844782B2, “Aqueous composition comprising dantrolene” (SPEPHARM AG, priority 2015, dated 2023)
# Counter-ions that a name gives are not always drawn.
# Assay: Solubility of dantrolene sodium salt with cyclodextrins at pH 6.0 to 10.0 (FIGS. 1-5, 11, 12)
# Format: physicochemical
# Details: pH 9; 2-hydroxypropyl-β-cyclodextrin 50 mg/ml, dantrolene sodium salt 1 mg/ml
# Protocol: In these experiments four different cyclodextrins were tested in combination with dantrolene sodium salt. The concentration of the cyclodextrin compound was 50 mg/ml and the concentration of dantrolene sodium salt was 1 mg/ml. The pH values were adjusted by using a buffer composed of phosphate 25 mM and Tromethamine 25 mM in water to reach pH 6.0, 7.0, 8.0, 9.0 and 10.0, respectively. The obtained solutions were stored at room temperature and examined over the course of 10 days. The solubility of dantrolene sodium salt was determined after 24 and 48 hours. The solutions were analyzed by visual observation, whilst the content of the dantrolene sodium salt and the degradation profile were determined by HPLC and pH value monitoring.
# Dantrolene content and degradation profiles were determined on an Agilent Series 1100 HPLC equipment (Agilent Technologies Inc, Santa Clara, CA, USA) fitted with a quaternary pump, an autosampler, a diode-array detector and a thermostated column compartment. Samples were analyzed on a Kinetex XB-C18 column (75×4.6 mm, 2.6 μm, Phenomenex) with mobile phases consisting of water with 0.1% formic acid (A) and acetonitrile with 0.1% formic acid (B) using a linear gradient from 15% to 45% (B) in 12 minutes. […]
smiles,measurement,value
"O=C1CN(/N=C/c2ccc(-c3ccc([N+](=O)[O-])cc3)o2)C(O)=N1 [dantrolene salt, dantrolene sodium salt]",solubility of the dantrolene salt,almost complete solubility
